Key:
[1] = type: physicochemical
[2] = Acute toxicity (LD50) in the mouse; settings: in vivo, read-out: LD₅₀

With `Nc1nc(=O)c2c([nH]1)NCC(CNc1ccc(C(=O)NC(CCC(=O)O)C(=O)O)cc1)N2C=O` (stereo not shown) [Calcium folinate, calcium folinate] the “STABILITY AT pH 2 MICROBIOLOGICAL TITRE AFTER 3 MONTHS” value [1] was 40%, the “STABILITY AT pH 2 MICROBIOLOGICAL TITRE AFTER 6 MONTHS” value [1] was 20% and the “STABILITY AT pH 2 MICROBIOLOGICAL TITRE TIME 0” value [1] was 100%. The LD50 [2] was > 7000 mg/kg.

Reference: EP0427078A1, “Folinic acid-cyclodextrin inclusion compound” (MAGIS FARMACEUTICI S.p.A., priority 1989, dated 1991)
